Series [1] deals with T1, S1P1 (Homo sapiens, UniProt P21453).
T1 construct: host or cells: CHO-K1
The series can be described thus: S1P1 mediated inhibition of forskolin induced cAMP (PathHunter CHO-K1 EDG1 cells). The series is classed as cell-based. The protocol:
The cell line used in the test was PathHunter® CHO-K1 EDG1 β-Arrestin Cell Line, supplier: DiscoverX, catalog number: 93-0207C2. The inhibitory effect of compounds on S1P1 mediated forskolin induced cAMP activity was evaluated.
Different concentrations of compounds and a final concentration of 0.6 μM forskolin were added to the test plate wells for each test, and the mixture was centrifuged at 1000 rpm for 10 seconds. A frozen cell was taken, washed twice with HBSS buffer and resuspended. 5000 cells were added to test plates per well, the mixture was shaked for 20 seconds, centrifuged at 1000 rpm for 10 seconds, and incubated at room temperature for 60 minutes. Anti-cAMP-Eu^2+-Cryptate and cAMP-d2 were added. Then the mixture was shaked for 20 seconds, centrifuged at 1000 rpm for 10 seconds, incubated at room temperature for 60 minutes, and the plate was read on an Envision plate reader. The data was analyzed by nonlinear regression to determine the EC50 of the compounds for the inhibition of cAMP induced by forskolin.

Series [2] addresses T1, S1P1. Nature of the series: S1P1 mediated β-arrestin reporter activation (PathHunter CHO-K1 EDG1 β-Arrestin Cell Line). The series is classed as cell-based. Particulars: 90 minutes incubation at 37° C. The protocol: The cell line used in the test was PathHunter® CHO-K1 EDG1 β-Arrestin Cell Line, supplier: DiscoverX, catalog number: 93-0207C2. According to the supplier's instructions, the cells were added to the test plate according to 25 μL cell suspension containing 5000 cells per well, and cultured at 37° C. for 20 hours. Compounds of 10 concentrations diluted 4 times were added to the cell culture medium and incubated at 37° C. for 90 minutes. The detection solution was prepared, 12 μL per well, incubated at room temperature for 60 minutes, the plate was read on an Envision plate reader. The data was analyzed by nonlinear regression to determine the EC50 of β-arrestin activity.

Series [3] deals with T1, S1P1. Nature of the series: S1P1 receptor internalization (FACS, CHO-K1 EDG1 cells). The series is classed as cell-based. Particulars: 2 hours incubation; read-out: S1P1 internalized EC50. The protocol:
1. CHO-K1 DEG1 cells (PathHunter® CHO-K1 EDG1 β-Arrestin Cell Line, supplier: DiscoverX, catalog number: 93-0207C2), and culture medium was removed (F12 medium 1000 mL, 10% FBS, 800 μg/mL G418, 300 μg/mL Hygromycin, 1% Glutamax and 1% Pen/Strep), the cells were washed with 2 mL of DPBS, 5 mL of cell dispersion (Invitrogen-13151014) was added to disperse the cells, the cells were incubated in an incubator at 37° C. for 1-2 minutes. The flask was gently patted to make the cells fall off. 5 mL of growth medium was added, and pipette was gently blown to suspend the cells. Cell counting was performed using Vi-Cell. The mixture was centrifuged at 1000 rpm for 5 minutes at room temperature, the supernatant was gently poured out, and the cells in FACS buffer were resuspended to a concentration of 1.5e6 cells per mL. 2. S1P and compounds were diluted with DMSO in a 384-well plate, and a volume of 500 nL was transferred to a 96 V-well plate (Cat #Axygen-WIPP02280). 3. 50 μL of cells were added to a 96-well plate; 4. The 96-well plate was incubated in a 37° C. 5% CO2 incubator for 2 hours. 5. The cells were centrifuged at room temperature at 1500 rpm for 5 minutes to remove the supernatant. 6. 100 μL of FACS buffer was added to the resuspended cells, centrifuged at 1500 rpm for 5 minutes, and the supernatant was removed. 7. The anti-human S1P1/EDG-1-Alex647 (R&D-FAB1864R) and anti-IgG2B-Alex647 (R&D-IC0041R) antibodies were diluted 200 times with FACS buffer. 8. 50 μL of antibody was added to 96 wells, and the plates were transferred to 4° C. for 30 minutes. 9. The cells were centrifuged at room temperature at 1500 rpm for 5 minutes to remove the supernatant. 10. 100 μL of FACS buffer was added to the resuspended cells. 11. The cells were centrifuged at 4° C. at 1500 rpm for 5 minutes to remove the supernatant. 12. After washing, the cells were resuspended in 50 μL of FACS buffer per well. 13. Cell samples were read using iQue Screener PLUS-VBR.

The nature of series [4]: In vivo pharmacokinetics in rats, intravenous injection and oral administration. On the set-up: species or system Sprague Dawley rats. Particulars: rat; for AUC(0-inf) / clearance / half-life / Cmax: male, Sprague-Dawley, plasma. The protocol: In this experimental embodiment, in vivo pharmacokinetic evaluation was performed in rats by intravenous injection and oral administration.
Experimental methods and conditions: male Sprague Dawley rats were given the test compounds 1 mg/kg (solvent 5% DMSO/15% Solutol/80% Saline) by intravenous injection and 1 mg/kg (solvent 0.5% MC) by oral gavage respectively. 5 min, 15 min, 30 min, 1 hr, 2 hr, 4 hr, 6 hr, 8 hr, 24 hr after administration, blood was collected from submandibular vein, each sample was collected about 0.20 mL, and heparin sodium was used for anti coagulation. After collection, the sample was placed on ice, and the blood was centrifuged to be measured within one hour. Blood drug concentration in plasma was detected by liquid chromatography tandem mass spectrometry (LC/MS/MS), and the pharmacokinetic parameters were calculated by Phoenix WinNonlin software.

Setting [5] is: intravenous administration 1 mg/kg.

pEC50: −log10 of the molar value. Where only a bound is given, the exact number is not on record here.

T1 sequence (P21453 whole entry): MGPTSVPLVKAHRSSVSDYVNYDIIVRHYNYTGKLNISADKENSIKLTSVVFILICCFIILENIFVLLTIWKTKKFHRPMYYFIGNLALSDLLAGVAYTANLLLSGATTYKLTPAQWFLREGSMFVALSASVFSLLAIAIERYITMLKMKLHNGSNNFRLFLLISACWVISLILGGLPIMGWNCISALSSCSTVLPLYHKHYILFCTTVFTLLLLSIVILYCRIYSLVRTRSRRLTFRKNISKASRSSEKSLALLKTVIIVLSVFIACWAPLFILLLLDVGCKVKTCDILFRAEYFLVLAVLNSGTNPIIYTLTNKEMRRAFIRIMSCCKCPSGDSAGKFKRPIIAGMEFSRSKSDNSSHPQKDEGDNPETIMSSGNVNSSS

Turning to `O=C(O)CCn1ccc2cc(OCc3ccc(C4CCCC4)c(C(F)(F)F)c3)ccc21` [Compound 12], the pEC50 is 9.19 in series [1] and 8.71 in series [2].

In the case of `O=C(O)CCc1[nH]c2ccc(OCc3ccc(C4CCOC4)c(C(F)(F)F)c3)cc2c1Cl` (centres unmarked) [Compound 26], the pEC50 in series [1] is 11.39; in series [2] it was 8.95.

For `O=C(O)CCc1[nH]c2ccc(OCc3ccc(C4CCOC4)c(C(F)(F)F)c3)cc2c1F` (centres unmarked) [Compound 33], the pEC50 in series [1] was 10.24; in series [2], 8.96.

`O=C(O)CCc1[nH]c2ccc(OCc3ccc(C4CCOCC4)c(C(F)(F)F)c3)cc2c1Cl` [Compound 27]: the pEC50 in series [1] is 11.68; in series [2], 8.99.

Turning to `O=C(O)C[C@H]1CCc2c1[nH]c1ccc(OCc3ccc(C4CCCC4)c(C(F)(F)F)c3)cc21` [APD334, reference compound], the pEC50 in series [1] was 8.68. Further, in series [3], the pEC50 was 8.20. In series [4] (setting [5]), the AUC(0-inf) amounted to 9.41 µg·h/mL, the clearance is 0.11 L/h/kg and the half-life is 5.2 h. In series [4] (oral administration 1 mg/kg), this compound had an AUC(0-inf) of 4.44 µg·h/mL, a Cmax of 0.341 µg/mL, a half-life of 5.5 h and an F of 46.3%.

For `Cc1c(CCC(=O)O)[nH]c2ccc(OCc3ccc(C4CCOC4)c(C(F)(F)F)c3)cc12` (centres unmarked) [Compound 32], the pEC50 in series [1] is 9.25; in series [2] it was 8.83.

Consider `O=C(O)CCc1cc2cc(OCc3ccc(C4CCCC4)c(C(F)(F)F)c3)ccc2[nH]1` [Compound 1], for which the values for the pEC50 in series [1] and in series [2] were more than 10.30 and 9.02, respectively.

For `CCc1c(CCC(=O)O)[nH]c2ccc(OCc3ccc(C4CCCC4)c(C(F)(F)F)c3)cc12` [Compound 2], the pEC50 in series [1] was 10.15; in series [2] it was 8.79; in series [3], 9.49.

Take `O=C(O)CCc1cc2cc(OCc3ccc(C4CCOC4)c(C(F)(F)F)c3)ccc2[nH]1` (centres unmarked) [Compound 31]: the figures for the pEC50 in series [1] and in series [2] were 9.74 and 8.58, respectively.

As to `O=C(O)CCc1[nH]c2ccc(OCc3cnc(C4CCCC4)c(C(F)(F)F)c3)cc2c1F` [Compound 30], the results for the pEC50 in series [1] and in series [2] were 9.82 and 9.21, respectively.

As to `O=C(O)CCc1cc2cc(OCc3ccc(C4CCCC4)c(C(F)(F)F)c3)c(F)cc2[nH]1` [Compound 18], the pEC50 in series [1] was 10.10; in series [2], 8.96; in series [3], 9.16.

On to `O=C(O)CCc1cc2cc(OCc3ccc(OC4CCCC4)c(C(F)(F)F)c3)ccc2[nH]1` [Compound 37], for which the pEC50 in series [1] was 9.70; in series [2], 8.76.

Take `O=C(O)CCc1nc2cc(OCc3ccc(C4CCCC4)c(C(F)(F)F)c3)ccc2[nH]1` [Compound 6]: the pEC50 in series [1] was 9.80.

Turning to `O=C(O)CCc1cc2cc(OCc3ccc(C4CCOCC4)c(C(F)(F)F)c3)ccc2[nH]1` [Compound 34], in series [2], the pEC50 was 8.27.

The compound `O=C(O)CCc1[nH]c2ccc(OCc3ccc(C4CCCC4)c(C(F)(F)F)c3)cc2c1F` [Compound 14] gave a pEC50 in series [1] of 10.15. The same compound showed a pEC50 in series [2] of 8.73. Also, the pEC50 in series [3] was 9.85. In series [4] (setting [5]), this compound showed an AUC(0-inf) of 10.8 µg·h/mL, a clearance of 0.093 L/h/kg and a half-life of 4.1 h. In series [4] (oral administration 1 mg/kg), this compound gave an AUC(0-inf) of 2.34 µg·h/mL, a Cmax of 0.258 µg/mL, a half-life of 4 h and an F of 21.3%.

Regarding `O=C(O)CCc1[nH]c2ccc(OCc3ccc(OC4CCCC4)c(C(F)(F)F)c3)cc2c1Cl` [Compound 24], the pEC50 in series [1] is 11.14; in series [2], 8.76.

In turn, `O=C(O)CCc1cc2cc(OCc3ccc(N4CCCC4)c(C(F)(F)F)c3)ccc2[nH]1` [Compound 28] gave a pEC50 in series [2] of 8.68.

Regarding `Cc1c(CCC(=O)O)[nH]c2ccc(OCc3ccc(OC4CCCC4)c(C(F)(F)F)c3)cc12` [Compound 38], in series [2], the pEC50 was 8.95.

Take `N#Cc1c(CCC(=O)O)[nH]c2ccc(OCc3ccc(C4CCCC4)c(C(F)(F)F)c3)cc12` [Compound 17]: the negative logarithm of the EC50 (pEC50) was 9.68 in series [1] and 8.75 in series [2].

Consider `O=C(O)CCc1[nH]c2ccc(OCc3cnc(C4CCCC4)c(C(F)(F)F)c3)cc2c1Cl` [Compound 25], for which the figures for the pEC50 in series [1] and in series [2] were 11.77 and 8.91, respectively.

In the case of `O=C(O)CCc1[nH]c2ccc(OCc3ccc(OC4CCCC4)c(C(F)(F)F)c3)cc2c1F` [Compound 39], the pEC50 in series [1] is 10.57; in series [2] it was 9.12.

In the case of `O=C(O)CCc1cc2cc(OCc3cnc(C4CCCC4)c(C(F)(F)F)c3)ccc2[nH]1` [Compound 29], the pEC50 in series [2] was 8.67.

Turning to `O=C(O)CCc1[nH]c2ccc(OCc3ccc(C4CCOCC4)c(C(F)(F)F)c3)cc2c1F` [Compound 36], the pEC50 was 9.52 in series [1] and 9.07 in series [2].

Consider `O=C(O)CCn1cnc2cc(OCc3ccc(C4CCCC4)c(C(F)(F)F)c3)ccc21` [Compound 4], for which, in series [1], the pEC50 is 9.30.

Turning to `O=C(O)CCc1[nH]c2ccc(OCc3ccc(C4CCC4)c(C(F)(F)F)c3)cc2c1Cl` [Compound 22], the results for the pEC50 in series [1] and in series [2] were 9.96 and 8.78, respectively.

In series [2], `Cc1c(CCC(=O)O)[nH]c2ccc(OCc3cnc(C4CCCC4)c(C(F)(F)F)c3)cc12` [Compound 40] had a pEC50 of 8.93.

With `Cc1c(CCC(=O)O)[nH]c2ccc(OCc3ccc(C4CCOCC4)c(C(F)(F)F)c3)cc12` [Compound 35], the results for the pEC50 in series [1] and in series [2] were 9.47 and 9.06, respectively.

On to `O=C(O)CCc1[nH]c2ccc(OCc3ccc(C4=CCCC4)c(C(F)(F)F)c3)cc2c1Cl` [Compound 21], for which the pEC50 in series [1] is 10.46; in series [2] it was 8.65.

As to `O=C(O)CCc1[nH]c2ccc(OCc3ccc(C4CCCCC4)c(C(F)(F)F)c3)cc2c1Cl` [Compound 23], the pEC50 is 10.49 in series [1] and 8.42 in series [2].

For the origin of these results see patent US12195457B2, “Aromatic ring derivative as immunoregulation and preparation method and application of aromatic ring derivative” (SHANGHAI JEMINCARE PHARMACEUTICALS CO., LTD, priority 2018, dated 2025).
